This note sets out measurements from patent US10517889B2, “Modulators of SMAD7 expression” (Ionis Pharmaceuticals, Inc., priority 2017, dated 2019).

Strand notation (5' to 3'): a small letter for the sugar, then the base; units joined by * are phosphorothioate-linked, units joined directly phosphodiester-linked; [ ] holds rarer units or linkages, { } end groups; capitals alone tell only the bases. k = constrained ethyl (cEt); [5mC] = 5-methylcytosine; d = 2'-deoxy (DNA)

This data set relates to human SMAD7 mRNA. Kind of data set: Antisense inhibition of human SMAD7 mRNA expression in Hep3B cells by 3-10-3 cEt gapmers, 10,000 nM, electroporation (Example 2). The following applies: approximately 24 hours. Type of data set: cell-based. The procedure, abridged:
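qRT-PCR (RTS5062) of SMAD7 mRNA, normalised to RIBOGREEN total RNA, gave percent inhibition relative to untreated controls. Hep3B cells at 20,000 per well received 10,000 nM oligonucleotide by electroporation, with ~24 h treatment.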

[1] abbreviates: Hep3B cells, electroporation with 10,000 nM antisense oligonucleotide, SMAD7 mRNA by RT-PCR (RTS5062), relative to untreated control cells.
Setting [2] is: SMAD7 mRNA, Hep3B cells, 10,000 nM antisense oligonucleotide, electroporation, primer probe set RTS5062, relative to untreated control cells.
Where [3] appears, read: Hep3B cells, electroporation with 10,000 nM antisense oligonucleotide, RTS5062, percent inhibition of SMAD7 mRNA relative to untreated control cells.
Where [4] appears, read: SMAD7 mRNA, Hep3B cells, electroporation with 10,000 nM antisense oligonucleotide, primer probe set RTS5062, relative to untreated control cells.
Setting [5] is: Hep3B cells, electroporation with 10,000 nM antisense oligonucleotide, primer probe set RTS5062, relative to untreated control cells.

As a reminder, the % Inhibition is the drop in the measured response relative to a control, in per cent.

With “798734 (antisense kG*k[5mC]*k[5mC]*d[5mC]*dG*d[5mC]*dG*dG*d[5mC]*dT*dG*dG*d[5mC]*kG*kG*kG) [compound 798734]”, the “% Inhibition” value under setting [1] turned out to be 0%. Turning to “799905 (antisense kA*kG*kT*d[5mC]*dG*dA*dA*dT*d[5mC]*dA*dT*dT*dT*k[5mC]*kT*k[5mC]) [compound 799905]”, under setting [1], the “% Inhibition” value was determined as 53%. As to “800858 (antisense kA*kG*k[5mC]*d[5mC]*d[5mC]*dA*dA*d[5mC]*dT*dG*dT*dT*dT*kG*kT*k[5mC]) [compound 800858]”, under setting [2], the “% Inhibition” value came to 40%. For the substance “799664 (antisense kG*k[5mC]*k[5mC]*dA*dG*d[5mC]*dA*dA*dG*dG*dA*dT*d[5mC]*kA*kA*kA) [compound 799664]”, the “% Inhibition” value under setting [3] was found to be 8%. For “829998 (kT*kG*kT*dT*dT*dG*dT*d[5mC]*dT*dT*dA*dG*d[5mC]*kT*kG*kT; antisense) [compound 829998]”, the “% Inhibition” value under setting [4] is given as 34%.

Turning to “799174 (antisense kA*kG*kT*d[5mC]*dT*dA*dA*dA*d[5mC]*dA*dT*dG*d[5mC]*kT*k[5mC]*kA) [compound 799174]”, under setting [5], the “% Inhibition” value is recorded as 42%. With “798891 (kG*k[5mC]*k[5mC]*d[5mC]*dT*dT*d[5mC]*dA*d[5mC]*dA*dA*dA*dG*k[5mC]*kT*kG; antisense) [compound 798891]”, the “% Inhibition” value (Hep3B cells, 10,000 nM antisense oligonucleotide, electroporation, RT-PCR primer probe set RTS5062, relative to untreated control cells) turned out to be 58%. Regarding “799421 (antisense kA*kA*k[5mC]*d[5mC]*d[5mC]*dA*dA*dG*dA*d[5mC]*d[5mC]*dA*dA*kA*kA*kA) [compound 799421]”, the “% inhibition of SMAD7 mRNA expression” value under setting [5] is reported as 63%.

As to “799077 (antisense k[5mC]*kA*kG*dG*dA*dG*d[5mC]*dA*dG*dA*dT*dG*dG*k[5mC]*k[5mC]*kA) [compound 799077]”, the “% Inhibition” value under setting [5] is on record as 28%.

As to “798676 (antisense k[5mC]*k[5mC]*kA*dT*dG*dA*dA*dG*dA*dA*dG*dT*d[5mC]*kG*kG*kG) [compound 798676]”, the “% inhibition of SMAD7 mRNA expression” value under setting [5] was 21%. Take “799458 (antisense kT*kT*kG*dA*dA*dA*dA*d[5mC]*d[5mC]*d[5mC]*dA*dA*d[5mC]*k[5mC]*k[5mC]*kT) [compound 799458]”: the “% inhibition of SMAD7 mRNA expression” value under setting [5] stood at 3%. Same read-out and setting: to “798984 (antisense kG*k[5mC]*k[5mC]*d[5mC]*d[5mC]*d[5mC]*d[5mC]*dT*dT*d[5mC]*dA*dT*dA*k[5mC]*kA*k[5mC]) [compound 798984]” belongs 64%. “830119 (k[5mC]*k[5mC]*kG*dA*d[5mC]*d[5mC]*dT*dT*d[5mC]*d[5mC]*dT*d[5mC]*d[5mC]*k[5mC]*kA*k[5mC]; antisense) [compound 830119]”: the “% Inhibition” value under setting [1] was found to be 24%. On the same count and under the same terms, to “830070 (kA*kA*kA*dG*dG*dT*dA*dA*dG*d[5mC]*d[5mC]*dA*dG*k[5mC]*kT*k[5mC]; antisense) [compound 830070]” belongs 44%. Consider “830200 (antisense kG*kA*kA*dG*dG*d[5mC]*dT*dA*d[5mC]*dA*d[5mC]*d[5mC]*dA*kA*kA*kG) [compound 830200]”, for which the “% Inhibition” value under setting [1] is given as 33%.

Consider “829765 (antisense kG*k[5mC]*k[5mC]*dG*d[5mC]*dT*d[5mC]*d[5mC]*dT*dT*d[5mC]*dA*dG*kT*kT*kT) [compound 829765]”, for which the “% Inhibition” value under setting [2] came to 28%. The same measure, in the same setting: to “790701 (kG*kG*kA*dT*dA*d[5mC]*dA*d[5mC]*dT*dT*dA*dA*dT*k[5mC]*kA*kA; antisense) [compound 790701]” belongs 57%. As to “799424 (antisense k[5mC]*kT*k[5mC]*d[5mC]*dA*dA*dA*dG*dG*d[5mC]*dT*dG*d[5mC]*kA*kG*kG) [compound 799424]”, the “% inhibition of SMAD7 mRNA expression” value under setting [5] is reported as 34%.

“829798 (kG*kG*kG*dT*dT*dG*dA*dT*d[5mC]*dT*dT*d[5mC]*d[5mC]*k[5mC]*kG*kT; antisense) [compound 829798]”: under setting [4], the “% Inhibition” value was determined as 26%. Regarding “799928 (antisense k[5mC]*kT*k[5mC]*d[5mC]*d[5mC]*dA*dA*dG*d[5mC]*d[5mC]*dT*dA*d[5mC]*kA*kT*kA) [compound 799928]”, under setting [1], the “% Inhibition” value is 7%. For the substance “790617 (k[5mC]*kT*kA*d[5mC]*dA*dA*dT*dG*d[5mC]*dT*dA*dA*dA*kT*kT*kT; antisense) [compound 790617]”, the “% Inhibition” value under setting [5] came out at 0%. As to “798946 (antisense kG*kA*kA*d[5mC]*dA*d[5mC]*dA*dA*dA*d[5mC]*dG*dA*dG*kG*kA*k[5mC]) [compound 798946]”, the “% inhibition of SMAD7 mRNA expression” value under setting [5] is recorded as 4%.

“799744 (antisense kA*kA*kA*dG*dA*dA*dA*dA*dT*dG*dG*d[5mC]*d[5mC]*kT*kA*k[5mC]) [compound 799744]”: under setting [3], the “% Inhibition” value is given as 1%. With “790609 (kG*kT*k[5mC]*dT*dA*dA*dA*d[5mC]*dA*dT*dG*d[5mC]*dT*k[5mC]*kA*kT; antisense) [compound 790609]”, the “% Inhibition” value under setting [2] came out at 40%. Take “799325 (antisense kT*k[5mC]*kT*d[5mC]*d[5mC]*d[5mC]*dA*dG*dG*dA*dG*dG*dG*kT*kA*kT) [compound 799325]”: the “% inhibition of SMAD7 mRNA expression” value under setting [5] turned out to be 2%. For “829928 (k[5mC]*kA*k[5mC]*dT*dA*d[5mC]*dA*dA*dT*dG*d[5mC]*dT*dA*kA*kA*kT; antisense) [compound 829928]”, the “% Inhibition” value under setting [4] worked out at 26%. With “799570 (kA*kA*kA*dA*dG*dA*dT*dG*d[5mC]*dA*dG*dT*dT*k[5mC]*kA*k[5mC]; antisense) [compound 799570]”, under setting [3], the “% Inhibition” value is 39%.

“772573 (antisense kA*kG*k[5mC]*dA*d[5mC]*dA*d[5mC]*d[5mC]*dA*dG*d[5mC]*dT*d[5mC]*kG*kG*kG) [compound 772573]”: the “% Inhibition” value under setting [1] is on record as 57%.

With “799825 (antisense kG*kA*k[5mC]*dT*dT*dG*dG*d[5mC]*dA*dG*d[5mC]*d[5mC]*dA*kA*kG*k[5mC]) [compound 799825]”, the “% Inhibition” value under setting [3] came to 0%.

For “799345 (k[5mC]*kG*kA*dG*dA*dA*dG*d[5mC]*d[5mC]*d[5mC]*dA*dG*dG*k[5mC]*k[5mC]*k[5mC]; antisense) [compound 799345]”, under setting [5], the “% inhibition of SMAD7 mRNA expression” value was 20%.

Take “798705 (antisense kG*kG*k[5mC]*dT*dG*dT*d[5mC]*d[5mC]*dG*dT*d[5mC]*dG*d[5mC]*k[5mC]*k[5mC]*k[5mC]) [compound 798705]”: the “% inhibition of SMAD7 mRNA expression” value under setting [5] was 41%. Consider “799353 (kT*k[5mC]*kT*dT*dT*dT*dA*dG*d[5mC]*d[5mC]*d[5mC]*dA*dA*k[5mC]*kT*kG; antisense) [compound 799353]”, for which, under setting [1], the “% Inhibition” value was 45%. In the case of “799863 (kG*kG*k[5mC]*dT*d[5mC]*d[5mC]*d[5mC]*d[5mC]*d[5mC]*dA*d[5mC]*d[5mC]*dG*k[5mC]*kA*kT; antisense) [compound 799863]”, the “% Inhibition” value under setting [1] worked out at 16%. For the substance “799268 (antisense kT*k[5mC]*k[5mC]*dA*dG*dT*dT*d[5mC]*dG*dG*d[5mC]*d[5mC]*dT*kT*k[5mC]*k[5mC]) [compound 799268]”, the “% inhibition of SMAD7 mRNA expression” value (Hep3B cells, electroporation, 10,000 nM, 3-10-3 cEt gapmers targeting SEQ ID NO: 3 and 4) is 24%. With “799354 (kA*kT*k[5mC]*dT*dA*d[5mC]*dT*d[5mC]*dA*d[5mC]*d[5mC]*dA*dG*kT*kT*kG; antisense) [compound 799354]”, the “% Inhibition” value under setting [1] amounted to 0%. The same measure, in the same setting: to “798699 (antisense k[5mC]*kG*k[5mC]*dA*dG*d[5mC]*dT*d[5mC]*dG*d[5mC]*d[5mC]*dT*d[5mC]*k[5mC]*kT*k[5mC]) [compound 798699]” belongs 51%. “799461 (antisense k[5mC]*kT*kG*d[5mC]*dG*dA*dG*dA*dG*dA*dA*dA*dA*kA*kG*kA) [compound 799461]”: the “% inhibition of SMAD7 mRNA expression” value under setting [5] is 62%.

Turning to “799704 (antisense kA*k[5mC]*k[5mC]*dA*dA*dT*dG*dG*d[5mC]*dA*dT*dT*dG*kA*kA*kT) [compound 799704]”, the “% Inhibition” value under setting [3] was 12%. For the substance “799597 (kA*kA*k[5mC]*dT*d[5mC]*dT*dG*dA*dA*d[5mC]*dG*dG*dA*kA*kA*kG; antisense) [compound 799597]”, the “% inhibition of SMAD7 mRNA expression” value (Hep3B cells, electroporation, 10,000 nM antisense oligonucleotide, RTS5062, relative to untreated control cells) is given as 46%. As for “799603 (kG*k[5mC]*k[5mC]*d[5mC]*dA*dT*dT*dA*dT*dG*dA*dA*dT*kA*k[5mC]*kA; antisense) [compound 799603]”, under setting [3], the “% Inhibition” value is 52%.

“790605 (kA*kT*k[5mC]*dA*dT*dA*d[5mC]*dG*dA*dG*dT*dG*dT*kA*kT*kG; antisense) [compound 790605]”: the “% Inhibition” value under setting [2] came out at 32%.

“830140 (antisense kT*k[5mC]*k[5mC]*dT*dA*dA*dG*d[5mC]*dT*dA*d[5mC]*dT*dT*kG*kG*kT) [compound 830140]”: the “% Inhibition” value under setting [1] is on record as 12%.

Turning to “799409 (antisense k[5mC]*kT*kA*d[5mC]*d[5mC]*dT*dA*dA*dT*dG*dT*d[5mC]*dA*kA*k[5mC]*kA) [compound 799409]”, the “% Inhibition” value under setting [1] is 34%. For “800061 (antisense k[5mC]*k[5mC]*k[5mC]*dA*dA*dA*dT*dG*d[5mC]*d[5mC]*dT*dG*d[5mC]*k[5mC]*k[5mC]*k[5mC]) [compound 800061]”, under setting [1], the “% Inhibition” value came out at 44%. On to “799049 (antisense kG*k[5mC]*k[5mC]*d[5mC]*dG*dT*dG*dT*d[5mC]*d[5mC]*dT*dT*dG*kA*kT*kG) [compound 799049]”, for which the “% inhibition of SMAD7 mRNA expression” value under setting [5] was determined as 44%.
